Results: patent US5322848A, “N-acyl-substituted azacyclic compounds, processes for their preparation, and their use as pharmaceuticals” (Dr. Lo Zembeletti S.p.A., priority 1989, dated 1994)
Where a name gives a salt, the structure may show the parent alone.

Columns and labels:
Format in all cases: in vivo, Male Charles River mice (Swiss Strain)
[1] = test system: mice (tail-flick); experiment: Tail-flick test in mice; conditions: 30 min pretreatment, data referred to the free base; for ED50: Mus musculus, sc, 0.5 h, subcutaneous, read-out: ANALGESIA MOUSE TAIL-FLICK ED50; for ANALGESIA MOUSE TAIL-FLICK, % at 10 mg: 10 mg (mg/kg sc)
Description: (§1) B) Tail-flick test in mice
(§2) The methodology employed is based on that described by D'Amour and Smith, J. Pharmacol. Exp. Ther. 72, 74/1941.
(§3) Males Charles River mice (Swiss Strain), 22-34 g body weight were used. Animals were allowed food and water ad libitum and were randomized into groups of 10 prior to experimentation.
Test compounds were dissolved in either distilled water or distilled water plug 0. 1M AMS and administered by the subcutaneous route in a final volume of 10 ml/Kg. Control animals received 10 ml/kg of the appropriate vehicle alone. Following a pretreatment period of 30 min., the mice were again placed under the heat source and the reaction tine re-determined.
(§4) Percentage quantal protection was determined as the number of mice in which the reaction time was doubled compared to pretreatment values, expressed as a percentage of the total number of mice in the group.

[2] = test system: mice (tail-flick); experiment: Duration of action, mouse tail-flick graded, % activity at MTFQ ED50; conditions: sc, data referred to the free base
Description: as §1, §2, §3
Test compounds were dissolved in either distilled water or distilled water plug 0. 1M AMS and administered by the subcutaneous route in a final volume of 10 ml/Kg. Control animals received 10 ml/kg of the appropriate vehicle alone. […]
as §4

[3] = test system: mice (p-phenylquinone-induced abdominal writhing); experiment: P-phenylquinone-induced abdominal writhing test in mice; conditions: Mus musculus, sc, 20 min; subcutaneous; 20 min pretreatment; data referred to the free base; read-out: ANALGESIA MOUSE WRITHING ED50
Description: A) P-phenylquinone-induced abdominal writhing rest in mice
The methodology employed is based on that described by Sigmund et al, Proc. Soc. Exptl. Biol. 95, 729/1957, modified by Milne and Twomey, Agents and Actions, 10, 31/1980.
Male Charles River mice (Swiss Strain), 25-36 g body weight, were used. Animals were allowed food and water ad libitum and were randomized into groups of 10 prior to experimentation. Test compounds were dissolved in either distilled water or distilled water plus 0.1 M AMS, and administered by the subcutaneous route in a final volume of 10 ml/Kg. Control animals received 10 ml/Kg of the appropriate vehicle alone. Following a pretreatment period of 20 min., mice were injected intraperitoneally with p-phenylquinone, 2 mg/Kg at 37° C. in a final volume of […]. […] During this period the number of abdominal writhing responses per animal were recorded where writhing consists of an intermittent contraction of the abdomen associated with hind leg extension.
The degree of antinociceptive protection afforded by the test co mound was determined as the mean number of writhing responses observed in the treated group (T) expressed as a percentage of the mean number of writhing response in the control group (C) according to the following formula:
[1-(T/C]×100%=% graded protection

SMILES	ED50 [1] [mg/kg]	DURATION OF ACTION M. TAIL-FLICK GRADED % ACTIVITY AT MTFQ ED50, 30' [2] [%]	DURATION OF ACTION M. TAIL-FLICK GRADED % ACTIVITY AT MTFQ ED50, 90' [2] [%]	ED50 [3] [mg/kg]	ANALGESIA MOUSE TAIL-FLICK, % at 10 mg [1] [%]
O=C1CCCc2cc(CC(=O)N3CCCCC3CN3CCC(O)C3)ccc21 (stereo not drawn) [Example 17, 1-[1-oxo-3,4-dihydro-(2H)-napht-6-yl]acetyl-2-(3-hydroxy-pyrrolidin-1-yl)methyl piperidine]	3.24	78	80	1.78	–
CC1(C)CCCN(C(=O)Cc2ccc(C(F)(F)F)cc2)C1CN1CCC(F)C1 (stereo not drawn) [Example 23, 1-(4-trifluoromethylphenyl)acetyl-2-(3-fluoropyrrolidin-1-yl) methyl-3,3-dimethylpiperidine hydrochloride]	0.005	90	86	0.003	–
O=C(Cc1ccc(Cl)c(Cl)c1)N1CCCCC1CN1CCC(F)C1 (stereo not drawn) [Example 18, 1-(3,4-dichlorophenyl)acetyl-2-(3-fluoropyrrolidin-1-yl)methyl piperidine hydrochloride]	0.021	80	34	0.002	–
COC1CCN(CC2CCCCN2C(=O)Cc2ccc(C(F)(F)F)cc2)C1 (stereo not drawn) [Example 20, 1-(4-trifluoromethylphenyl)acetyl-2-(3-methoxypyrrolidin-1-yl) methyl piperidine]	–	–	–	–	80
CC1(C)CCN(C(=O)Cc2ccc(Cl)c(Cl)c2)C(CN2CCC(O)C2)C1 (stereo not drawn) [Example 7, 1-(3,4-dichlorophenyl)acetyl-2-(3-hydroxypyrrolidin-1-yl)methyl-4,4-dimethyl piperidine hydrochloride hemihydrate]	0.25	84	74	0.037	–
COC1CCN(CC2CCCCN2C(=O)Cc2ccc(Cl)c(Cl)c2)C1 (stereo not drawn) [Example 19, 1-(3,4-dichlorophenyl)acetyl-2-(3-methoxypyrrolidin-1-yl)methyl piperidine]	–	–	–	–	80
CC1(C)CCN(C(=O)Cc2ccc3c(c2)CCCC3=O)C(CN2CCC(F)C2)C1 (stereo not drawn) [Example 25, 1-[1-oxo-3,4-dihydro-(2H)-napht-6-yl]acetyl-2-(3-fluoropyrrolidin-1-yl)methyl-4,4-dimethyl piperidine hydrochloride]	0.47	74	56	0.005	–
CC1(C)CN(C(=O)Cc2ccc(Cl)c(Cl)c2)C(CN2CCC(O)C2)c2ccccc21 (stereo not drawn) [Example 14, 1-(3-hydroxypyrrolidin-1-yl)methyl-2-(3,4-dichlorophenyl)acetyl 4,4-dimethyl-1,2,3,4-tetrahydroisoquinoline hydrochloride]	0.898	93	85	0.087	–
O=C1CCCc2cc(CC(=O)N3CCCCC3CN3CCC(F)C3)ccc21 (stereo not drawn) [Example 22, 1-[1-oxo-3,4-dihydro-(2H)-napht-6-yl]acetyl-2-(3-fluoropyrrolidin-1-yl)methyl piperidine hydrochloride]	0.065	75	40	0.005	–
CC1(C)CCCN(C(=O)Cc2ccc(Cl)c(Cl)c2)C1CN1CCC(O)C1 (stereo not drawn) [Example 6, 1-(3,4-dichlorophenyl)acetyl-2-(3-hydroxypyrrolidin-1-yl)methyl-3,3-dimethyl piperidine hydrochloride]	0.233	87	100	0.081	–
C[C@]1(O)CCN(C[C@H]2CCCCN2C(=O)Cc2ccc(Cl)c(Cl)c2)C1.Cl [Example 9, (R,S)-1-(3,4-dichlorophenyl)acetyl-2-(3-hydroxy-3-methylpyrrolidin-1-yl) methyl piperidine hydrochloride]	–	–	–	–	40
CC1(C)CCCN(C(=O)Cc2ccc(C(F)(F)F)cc2)C1CN1CCC(O)C1 (stereo not drawn) [Example 5, 1-(4-trifluoromethylphenyl)acetyl-2-(3-hydroxypyrrolidin-1-yl) methyl-3,3-dimethyl piperidine hydrochloride]	0.225	78	82	0.089	–
